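The concentration for 50% growth inhibition is given as GI50. TGI marks complete inhibition of growth.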
Legend:
Assay in all cases: NCI-60 cell line screen, 384-well format
[1] = tested on: OVCAR-5 ovarian
[2] = tested on: RPMI-8226 leukemia
[3] = tested on: K-562 leukemia
[4] = tested on: UO-31 renal
[5] = tested on: HOP-62 NSCLC
[6] = tested on: A498 renal
[7] = tested on: SNB-75 CNS
[8] = tested on: NCI/ADR-RES ovarian
[9] = tested on: 786-0 renal
[10] = tested on: HCT-116 colon
[11] = tested on: SK-OV-3 ovarian
[12] = tested on: IGROV1 ovarian
[13] = tested on: NCI-H522 lung
[14] = tested on: OVCAR-4 ovarian
[15] = tested on: SK-MEL-2 melanoma
[16] = tested on: T-47D breast
[17] = tested on: MDA-MB-231 breast
[18] = tested on: PC-3 prostate
[19] = tested on: HCC-2998 colon
[20] = tested on: SW-620 colon
[21] = tested on: DU-145 prostate
[22] = tested on: RXF 393 renal
[23] = tested on: SR leukemia
[24] = tested on: MALME-3M melanoma

C[C@@H](c1ccc2nccn2c1)n1nnc2ncc(-c3cnn(C)c3)nc21
TGI [1]: > 100 µM | GI50 [2]: > 68.8 µM | TGI [2]: > 100 µM | GI50 [3]: 44.8 µM | TGI [3]: > 100 µM | GI50 [4]: > 100 µM | TGI [4]: > 100 µM | GI50 [5]: > 92.4 µM | TGI [5]: > 100 µM | GI50 [6]: > 100 µM | TGI [6]: > 100 µM | GI50 [7]: > 76.8 µM | TGI [7]: > 100 µM | GI50 [8]: > 100 µM | TGI [8]: > 100 µM | GI50 [9]: > 100 µM | TGI [9]: > 100 µM | GI50 [10]: > 100 µM | TGI [10]: > 100 µM | GI50 [11]: > 100 µM | TGI [11]: > 100 µM | GI50 [12]: > 100 µM | TGI [12]: > 100 µM | GI50 [13]: > 75.5 µM | TGI [13]: > 100 µM | GI50 [14]: > 94.4 µM | TGI [14]: > 100 µM | GI50 [15]: > 100 µM | TGI [15]: > 100 µM | GI50 [16]: > 61.2 µM | TGI [16]: > 100 µM | GI50 [17]: > 100 µM | TGI [17]: > 100 µM | GI50 [18]: > 100 µM | TGI [18]: > 100 µM | GI50 [19]: > 100 µM | TGI [19]: > 100 µM | GI50 [20]: > 100 µM | TGI [20]: > 100 µM | GI50 [21]: > 100 µM | TGI [21]: > 100 µM | GI50 [22]: > 75.4 µM | TGI [22]: > 100 µM | GI50 [23]: 43.3 µM | TGI [23]: > 100 µM | GI50 [24]: > 100 µM | TGI [24]: > 100 µM

From PubChem BioAssay (NCI)
